The text below walks through data of US11033539B2, “Compounds of formulas (VII), (VIII), (IX), (XI), (XII), (XIII), and (XIV) as muscarinic receptor 4(M4) antagonists for treating neurological diseases” (Neurocrine Biosciences, Inc., priority 2015, dated 2021).

Structures are written as SMILES.

One experiment deals with human M1 receptor (Homo sapiens (Human), UniProt P11229). The experiment in a line: Radioligand (tritiated N-methylscopolamine) binding assay, M1. The conditions noted are these: CHO cell membranes expressing human M1; 1.5 nM tritiated N-methylscopolamine; 90 min, 37° C.; read-out: Ki against M1 receptor (Table 21, M1). Here is the method: (§1) Binding affinity (Ki) of compounds was measured by inhibition of radioligand binding to membranes from CHO cells expressing human M1, M2, M3, M4 and M5 receptors. Membranes were prepared by nitrogen cavitation and differential centrifugation as previously described (Hoare et al., Mol. Pharmacol. 2003 March; 63(3): 751-65). The radioligand employed was tritiated N-methylscopolamine, used at a concentration of 1.5 nM. A dose-response of twelve concentrations of compound was used, ranging from 10 μM to […]. The assay buffer was 50 mM HEPES, 100 mM NaCl, 5 mM MgCl2, 1 mM ethylenediaminetetraacetic acid, pH-adjusted to pH 7.4. Membranes, radioligand and compound were incubated together for 90 minutes at 37° C., in a total volume of 150 μl in a 96-well plate. Receptor-bound radioligand was then collected by harvesting the assay over glass fiber filters pretreated with polyethylenimine to trap the cell membranes, using rapid vacuum filtration. Harvesting and radioactivity counting was conducted as previously described (see, e.g., Hoare et al., Mol. Pharmacol. 2003 63(3):751-65); Erratum at Mol. Pharmacol. 2005 July; 68(1): 260).

For another experiment, the target named is human M2 receptor (Homo sapiens (Human), UniProt P08172). In words: Radioligand (tritiated N-methylscopolamine) binding assay, M2. To be noted: CHO cell membranes expressing human M2; 1.5 nM tritiated N-methylscopolamine; 90 min, 37° C.; read-out: Ki against M2 receptor (Table 21, M2). Here is the method: as §1
A further experiment addresses human M3 receptor (Homo sapiens (Human), UniProt P20309). The experiment in a line: Radioligand (tritiated N-methylscopolamine) binding assay, M3. To be noted: CHO cell membranes expressing human M3; 1.5 nM tritiated N-methylscopolamine; 90 min, 37° C.; read-out: Ki against M3 receptor (Table 21, M3). Here is the method:
as §1

The next experiment concerns the target human M4 receptor (Homo sapiens (Human), UniProt P08173). In words: Radioligand (tritiated N-methylscopolamine) binding assay, M4. To be noted: Ki against the M4 receptor; membranes from CHO cells expressing human M4; tritiated N-methylscopolamine 1.5 nM; read-out: Ki. An outline of the steps: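 Membranes from CHO cells expressing the receptor were incubated with 1.5 nM radioligand and twelve compound concentrations (10 μM to […]) for 90 min at 37 °C in 50 mM HEPES, 100 mM NaCl, 5 mM MgCl2, 1 mM EDTA, pH 7.4. Bound radioligand was collected by filtration and counted, and Ki was derived from inhibition.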

A further experiment deals with human M5 receptor (Homo sapiens (Human), UniProt P08912). The experiment in a line: Radioligand (tritiated N-methylscopolamine) binding assay, M5. The conditions noted are these: CHO cell membranes expressing human M5; 1.5 nM tritiated N-methylscopolamine; 90 min, 37° C.; read-out: Ki against M5 receptor (Table 21, M5). Here is the method: as §1
Chain of human M5 receptor (P08912 whole entry): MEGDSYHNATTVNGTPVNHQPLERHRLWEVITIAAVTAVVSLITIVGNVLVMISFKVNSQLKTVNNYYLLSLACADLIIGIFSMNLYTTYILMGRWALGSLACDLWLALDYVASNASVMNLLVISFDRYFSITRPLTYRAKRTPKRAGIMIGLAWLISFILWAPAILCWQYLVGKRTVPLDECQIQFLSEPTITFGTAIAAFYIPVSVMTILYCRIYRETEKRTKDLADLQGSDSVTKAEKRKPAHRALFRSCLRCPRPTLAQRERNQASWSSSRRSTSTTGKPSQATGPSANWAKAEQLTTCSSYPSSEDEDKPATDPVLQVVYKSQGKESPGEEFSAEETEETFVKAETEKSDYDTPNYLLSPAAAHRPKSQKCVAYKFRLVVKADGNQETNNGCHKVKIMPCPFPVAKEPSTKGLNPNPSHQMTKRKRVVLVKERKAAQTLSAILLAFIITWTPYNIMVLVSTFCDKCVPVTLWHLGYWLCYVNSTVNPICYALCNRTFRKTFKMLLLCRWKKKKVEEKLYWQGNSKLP

Chain of human M2 receptor (P08172 whole entry): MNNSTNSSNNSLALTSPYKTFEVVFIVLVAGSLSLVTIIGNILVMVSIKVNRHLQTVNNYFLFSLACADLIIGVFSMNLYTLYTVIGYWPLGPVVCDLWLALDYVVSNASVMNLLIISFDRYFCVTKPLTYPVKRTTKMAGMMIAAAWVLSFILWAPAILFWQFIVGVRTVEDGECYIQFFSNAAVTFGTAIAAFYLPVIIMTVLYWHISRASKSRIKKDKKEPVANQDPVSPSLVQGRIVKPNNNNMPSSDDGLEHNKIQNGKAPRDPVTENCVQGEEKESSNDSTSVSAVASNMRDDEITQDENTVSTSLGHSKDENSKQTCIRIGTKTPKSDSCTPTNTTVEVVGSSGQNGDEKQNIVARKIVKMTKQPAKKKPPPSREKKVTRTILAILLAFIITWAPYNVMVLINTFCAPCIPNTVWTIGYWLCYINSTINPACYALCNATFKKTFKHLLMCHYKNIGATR
Chain of human M3 receptor (P20309 whole entry): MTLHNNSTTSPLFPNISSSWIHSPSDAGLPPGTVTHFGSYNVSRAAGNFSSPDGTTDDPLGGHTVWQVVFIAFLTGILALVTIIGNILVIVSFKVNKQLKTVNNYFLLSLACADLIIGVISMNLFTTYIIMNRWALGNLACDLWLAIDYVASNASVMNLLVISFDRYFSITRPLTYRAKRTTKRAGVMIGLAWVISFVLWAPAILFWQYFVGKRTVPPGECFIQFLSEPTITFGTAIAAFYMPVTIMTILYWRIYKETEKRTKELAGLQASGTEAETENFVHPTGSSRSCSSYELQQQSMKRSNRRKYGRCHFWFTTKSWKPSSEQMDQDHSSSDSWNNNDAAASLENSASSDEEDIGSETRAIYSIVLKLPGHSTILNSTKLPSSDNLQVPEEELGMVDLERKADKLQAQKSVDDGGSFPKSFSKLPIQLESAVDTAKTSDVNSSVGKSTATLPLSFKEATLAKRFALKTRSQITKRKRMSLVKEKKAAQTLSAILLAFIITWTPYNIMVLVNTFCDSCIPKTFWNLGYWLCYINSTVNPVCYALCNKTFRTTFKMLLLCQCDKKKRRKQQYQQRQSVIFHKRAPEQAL
Chain of human M1 receptor (P11229 whole entry): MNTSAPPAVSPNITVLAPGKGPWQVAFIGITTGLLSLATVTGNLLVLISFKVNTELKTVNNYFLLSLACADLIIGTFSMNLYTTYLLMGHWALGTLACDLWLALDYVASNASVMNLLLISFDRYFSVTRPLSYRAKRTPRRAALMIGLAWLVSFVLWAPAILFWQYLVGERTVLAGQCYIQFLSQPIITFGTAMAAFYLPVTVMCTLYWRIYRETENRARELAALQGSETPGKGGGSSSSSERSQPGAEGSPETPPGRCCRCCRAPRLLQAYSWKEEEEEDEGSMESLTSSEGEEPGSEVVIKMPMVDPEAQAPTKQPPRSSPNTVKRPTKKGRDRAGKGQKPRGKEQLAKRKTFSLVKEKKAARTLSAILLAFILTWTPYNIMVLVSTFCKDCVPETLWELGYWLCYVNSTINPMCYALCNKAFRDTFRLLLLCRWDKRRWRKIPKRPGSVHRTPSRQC
Chain of human M4 receptor (P08173 whole entry): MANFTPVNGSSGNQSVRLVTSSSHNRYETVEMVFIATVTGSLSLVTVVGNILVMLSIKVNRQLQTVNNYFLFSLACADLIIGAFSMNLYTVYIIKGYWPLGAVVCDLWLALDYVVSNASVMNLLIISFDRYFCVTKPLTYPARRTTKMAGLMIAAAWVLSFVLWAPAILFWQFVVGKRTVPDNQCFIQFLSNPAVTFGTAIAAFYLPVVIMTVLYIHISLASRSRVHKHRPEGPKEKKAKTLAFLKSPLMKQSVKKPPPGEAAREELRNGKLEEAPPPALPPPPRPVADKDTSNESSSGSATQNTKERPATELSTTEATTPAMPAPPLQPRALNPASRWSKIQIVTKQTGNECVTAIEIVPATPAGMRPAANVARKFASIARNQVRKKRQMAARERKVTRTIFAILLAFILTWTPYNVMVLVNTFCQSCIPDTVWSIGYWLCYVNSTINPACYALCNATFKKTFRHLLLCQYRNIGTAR

As usually defined, the Ki is a dissociation constant, usually derived from enzyme kinetics or from competition with a known ligand. As to `C[C@@H]1CN(c2cc(F)c(F)c(F)c2)CCN1C(=O)NC[C@H](O)C1CCN(Cc2ccccc2)CC1` [3-16, (2R)-N-[(2R)-2-(1-benzylpiperidin-4-yl)-2-hydroxyethyl]-2-methyl-4-(3,4,5-trifluorophenyl)piperazine-1-carboxamide], the inhibition constant Ki at human M1 receptor is over 1000 nM; at human M2 receptor, over 1000 nM; on human M3 receptor it was over 1000 nM; at human M4 receptor, under 10 nM; at human M5 receptor it was over 1000 nM.

Turning to `C[C@@H]1CN(c2ccc(C(F)(F)F)cc2)CCN1C(=O)NCCC1CCN(Cc2ccccc2)CC1` [4-5, (2R)-N-[2-(1-benzylpiperidin-4-yl)ethyl]-2-methyl-4-[4-(trifluoromethyl)phenyl]piperazine-1-carboxamide], the Ki was 100 to 1000 nM at human M1 receptor; 10 to 100 nM at human M2 receptor; over 1000 nM at human M3 receptor; under 10 nM on human M4 receptor; over 1000 nM at human M5 receptor.

Turning to `C[C@@H]1CN(c2ncc(F)cc2F)C[C@H](C)N1C(=O)NCCC1CCN(Cc2ccccc2)CC1` [22-5, (2R,6S)-N-[2-(1-benzylpiperidin-4-yl)ethyl]-4-(3,5-difluoropyridin-2-y1)-2,6-dimethylpiperazine-1-carboxamide], the Ki at human M1 receptor is 100 to 1000 nM; at human M2 receptor, 10 to 100 nM; at human M3 receptor, over 1000 nM; on human M4 receptor it was under 10 nM; at human M5 receptor it was 100 to 1000 nM.

`N#Cc1cc(N2CCC(C(=O)NCCC3CCN(Cc4ccccc4)CC3)CC2)ccc1OC(F)(F)F` [10-57, N-[2-(1-benzylpiperidin-4-yl)ethyl]-1-[3-cyano-4-(trifluoromethoxy)phenyl]piperidine-4-carboxamide]: the Ki was 100 to 1000 nM at human M1 receptor; 10 to 100 nM on human M2 receptor; over 1000 nM at human M3 receptor; under 10 nM on human M4 receptor; over 1000 nM on human M5 receptor.

As to `C[C@@H]1CN(c2nc(Cl)cc(C#N)n2)CCN1C(=O)NCCC1CCN(Cc2ccccc2)CC1` [5-5, (2R)-N-[2-(1-benzylpiperidin-4-yl)ethyl]-4-(4-chloro-6-cyanopyrimidin-2-yl)-2-methylpiperazine-1-carboxamide], the Ki on human M1 receptor is 100 to 1000 nM; at human M2 receptor, 100 to 1000 nM; at human M3 receptor, over 1000 nM; at human M4 receptor, under 10 nM; at human M5 receptor, over 1000 nM.

As for `CNc1nc(N2CCN(C(=O)NCCC3CCN(Cc4ccccc4)CC3)[C@H](C)C2)ncc1C#N` [5-23, (2R)-N-[2-(1-benzylpiperidin-4-yl)ethyl]-4-[5-cyano-4-(methylamino)pyrimidin-2-yl]-2-methylpiperazine-1-carboxamide], the Ki at human M1 receptor is 100 to 1000 nM; on human M2 receptor, 10 to 100 nM; at human M3 receptor, over 1000 nM; at human M4 receptor it was under 10 nM; on human M5 receptor it was over 1000 nM.

Take `O=C(NCCC1(CO)CCN(Cc2ccccc2)CC1)C1CCN(c2ccc(OC(F)(F)F)c(F)c2)CC1` [9-64, N-{2-[1-benzyl-4-(hydroxymethyl)piperidin-4-yl]ethyl}-1-[3-fluoro-4-(trifluoromethoxy)phenyl]piperidine-4-carboxamide]: the Ki on human M1 receptor is 100 to 1000 nM; at human M2 receptor, 100 to 1000 nM; at human M3 receptor, over 1000 nM; at human M4 receptor it was under 10 nM; at human M5 receptor, over 1000 nM.

On to `O=C(NCCC1CCN(Cc2ccccc2)CC1)N1CCN(c2cnc(C(F)(F)F)cn2)CC1` [22-25, N-[2-(1-benzylpiperidin-4-yl)ethyl]-4-[5-(trifluoromethyl)pyrazin-2-yl]piperazine-1-carboxamide], for which the Ki at human M1 receptor was over 1000 nM; at human M2 receptor, 10 to 100 nM; at human M3 receptor it was over 1000 nM; at human M4 receptor, under 10 nM; on human M5 receptor, over 1000 nM.

As for `C[C@@H]1CN(c2ncc(C(F)(F)F)cn2)C[C@H](C)N1C(=O)NCCC1CCN(Cc2ccccc2)CC1` [5-27, (2R,6S)-N-[2-(1-benzylpiperidin-4-yl)ethyl]-2,6-dimethyl-4-[5-(trifluoromethyl)pyrimidin-2-yl]piperazine-1-carboxamide], the Ki was 100 to 1000 nM on human M1 receptor; 100 to 1000 nM at human M2 receptor; over 1000 nM at human M3 receptor; under 10 nM on human M4 receptor; over 1000 nM on human M5 receptor.

As for `C[C@@H]1CN(c2ccc(OC(F)(F)F)c(C#N)c2)CCN1C(=O)NC[C@@H](O)C1CCN(Cc2ccccc2)CC1` [3-21, (2R)-N-[(2S)-2-(1-benzylpiperidin-4-yl)-2-hydroxyethyl]-4-[3-cyano-4-(trifluoromethoxy)phenyl]-2-methylpiperazine-1-carboxamide], the Ki on human M1 receptor is over 1000 nM; at human M2 receptor, 100 to 1000 nM; at human M3 receptor, over 1000 nM; at human M4 receptor it was under 10 nM; on human M5 receptor, over 1000 nM.

Turning to `C[C@@H]1CN(c2ccc(OC(F)(F)F)c(C#N)c2)CCN1C(=O)NC[C@H](O)C1CCN(Cc2ccccc2)CC1` [7-10, (2R)-N-[(2R)-2-(1-benzylpiperidin-4-yl)-2-hydroxyethyl]-4-[3-cyano-4-(trifluoromethoxy)phenyl]-2-methylpiperazine-1-carboxamide], the Ki was over 1000 nM on human M1 receptor; 100 to 1000 nM on human M2 receptor; over 1000 nM at human M3 receptor; under 10 nM at human M4 receptor; over 1000 nM on human M5 receptor.

As to `Cc1nc(N2CCN(C(=O)NCCC3CCN(Cc4ccccc4)CC3)[C@H](C)C2)ccc1F` [4-19, (2R)-N-[2-(1-benzylpiperidin-4-yl)ethyl]-4-(5-fluoro-6-methylpyridin-2-yl)-2-methylpiperazine-1-carboxamide], the Ki at human M1 receptor was 100 to 1000 nM; on human M2 receptor, 100 to 1000 nM; on human M3 receptor, over 1000 nM; at human M4 receptor, under 10 nM; on human M5 receptor, over 1000 nM.

For the compound `C[C@@H]1CN(c2ccc(C(F)(F)F)cc2F)CCN1C(=O)NCCC1CCN(Cc2ccccc2)CC1` [4-73, (2R)-N-[2-(1-benzylpiperidin-4-yl)ethyl]-4-[2-fluoro-4-(trifluoromethyl)phenyl]-2-methylpiperazine-1-carboxamide], the Ki is 100 to 1000 nM at human M1 receptor; 10 to 100 nM at human M2 receptor; 100 to 1000 nM on human M3 receptor; under 10 nM at human M4 receptor; over 1000 nM on human M5 receptor.

As for `C[C@@H]1CN(c2ncc(C#N)cn2)C[C@H](C)N1C(=O)NCCC1CCN(Cc2cccc(F)c2)CC1` [6-46, (2R,6S)-4-(5-cyanopyrimidin-2-yl)-N-(2-{1-[(3-fluorophenyl)-methyl]piperidin-4-yl}ethyl)-2,6-dimethylpiperazine-1-carboxamide], the inhibition constant Ki at human M1 receptor was over 1000 nM; on human M2 receptor, under 10 nM; at human M3 receptor, over 1000 nM; at human M4 receptor it was under 10 nM; on human M5 receptor, over 1000 nM.

In the case of `C[C@H]1CN(c2ccc(C(F)(F)F)cn2)CCC1C(=O)NCCC1CCN(Cc2ccccc2)CC1` (stereo partly drawn) [10-80, (3R)-N-[2-(1-benzylpiperidin-4-yl)ethyl]-3-methyl-1-[5-(trifluoromethyl)pyridin-2-yl]piperidine-4-carboxamide], the Ki is 10 to 100 nM on human M1 receptor; 10 to 100 nM at human M2 receptor; 100 to 1000 nM at human M3 receptor; under 10 nM at human M4 receptor; 100 to 1000 nM on human M5 receptor.

Consider `C[C@@H]1CN(c2cnc(C#N)nc2)CCN1C(=O)NCCC1CCN(Cc2ccccc2)CC1` [4-80, (2R)-N-[2-(1-benzylpiperidin-4-yl)ethyl]-4-(2-cyanopyrimidin-5-yl)-2-methylpiperazine-1-carboxamide], for which the Ki is 100 to 1000 nM at human M1 receptor; 100 to 1000 nM on human M2 receptor; over 1000 nM on human M3 receptor; under 10 nM on human M4 receptor; over 1000 nM on human M5 receptor.

Turning to `O=C(NCCC1CCN(Cc2ccccc2)CC1)C1CCN(c2ccc(OC(F)(F)F)c(F)c2)CC1` [10-8, N-[2-(1-benzylpiperidin-4-yl)ethyl]-1-[3-fluoro-4-(trifluoromethoxy)phenyl]piperidine-4-carboxamide], the Ki is over 1000 nM on human M1 receptor; 100 to 1000 nM on human M2 receptor; over 1000 nM at human M3 receptor; under 10 nM on human M4 receptor; over 1000 nM on human M5 receptor.

As for `C[C@@H]1CN(c2cc(F)c(OC(F)(F)F)c(F)c2)CCN1C(=O)NCCC1CCN(Cc2ccccc2)CC1` [4-60, (2R)-N-[2-(1-benzylpiperidin-4-yl)ethyl]-4-[3,5-difluoro-4-(trifluoromethoxy)phenyl]-2-methylpiperazine-1-carboxamide], the Ki on human M1 receptor is 100 to 1000 nM; on human M2 receptor it was 10 to 100 nM; on human M3 receptor, 100 to 1000 nM; on human M4 receptor, under 10 nM; at human M5 receptor, 100 to 1000 nM.
